From patent publication US20220267260A1, “COMPOUNDS CONTAINING A SULFONIC GROUP AS KAT INHIBITORS” (Epizyme, Inc., priority 2016, published 2022)

Assays:
KAT5 = target: T1, KAT5 (Homo sapiens, UniProt Q92993); assay: KAT5 enzyme inhibition assay (SAMDI mass spectrometry); format: biochemical; settings: His-TEV-FL KAT5-Flag enzyme construct
T1 construct: His-TEV tag (N, cleaved yes); made in house

KAT6A = target: T2, KAT6A (Homo sapiens, UniProt Q92794); assay: KAT6A enzyme inhibition assay (SAMDI mass spectrometry); format: biochemical; settings: His-TEV-KAT6A 501-784 enzyme construct
T2 construct: His-TEV tag (N, cleaved yes); made in house
T2 sequence (Q92794 with tags, fused parts or gaps): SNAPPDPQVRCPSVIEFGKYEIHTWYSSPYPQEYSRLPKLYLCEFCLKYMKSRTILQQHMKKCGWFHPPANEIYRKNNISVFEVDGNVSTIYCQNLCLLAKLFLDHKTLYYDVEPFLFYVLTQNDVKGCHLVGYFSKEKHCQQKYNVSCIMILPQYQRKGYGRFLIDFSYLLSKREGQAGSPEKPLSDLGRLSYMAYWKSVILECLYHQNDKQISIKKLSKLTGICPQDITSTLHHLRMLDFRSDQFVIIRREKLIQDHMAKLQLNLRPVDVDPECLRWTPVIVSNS

T1 sequence (Q92993 with tags, fused parts or gaps): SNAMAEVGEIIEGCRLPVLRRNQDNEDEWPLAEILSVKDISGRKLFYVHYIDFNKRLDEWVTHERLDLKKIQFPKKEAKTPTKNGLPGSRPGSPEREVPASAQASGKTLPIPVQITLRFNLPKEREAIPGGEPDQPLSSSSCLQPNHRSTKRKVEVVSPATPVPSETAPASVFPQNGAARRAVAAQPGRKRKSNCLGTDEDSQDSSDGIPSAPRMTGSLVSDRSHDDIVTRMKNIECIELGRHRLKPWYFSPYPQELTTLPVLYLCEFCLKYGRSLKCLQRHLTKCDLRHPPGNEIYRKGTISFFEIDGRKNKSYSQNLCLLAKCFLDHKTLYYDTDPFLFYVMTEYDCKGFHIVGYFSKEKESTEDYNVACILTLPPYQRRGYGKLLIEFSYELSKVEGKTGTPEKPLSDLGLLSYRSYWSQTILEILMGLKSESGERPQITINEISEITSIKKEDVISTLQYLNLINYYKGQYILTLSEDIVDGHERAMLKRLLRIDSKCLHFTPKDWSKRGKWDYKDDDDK

Structure (SMILES)	IC50 (KAT5)	IC50 (KAT6A)
CNC(=O)c1cc(Cl)c(F)c(C(=O)NNS(=O)(=O)C2CCOCC2)c1 [Compound I-491]	> 100 µM	> 100 µM
CCNC(=O)c1cc(Cl)c(F)c(C(=O)NNS(=O)(=O)C2CCOCC2)c1 [Compound I-492]	> 100 µM	> 100 µM
CNC(=O)CCNC(=O)c1cc(Cl)c(F)c(C(=O)NNS(=O)(=O)C2CCOCC2)c1 [Compound I-493]	> 100 µM	> 100 µM
COCCNC(=O)c1cccc(-c2cc(C)c(F)c(C(=O)NNS(=O)(=O)c3ccccc3)c2)c1 [Compound I-494]	10 to 50 µM	≤ 10 µM
O=C(NNS(=O)(=O)CC1CCCCC1)c1cc(-c2c[nH]cn2)ccc1F [Compound I-495]	10 to 50 µM	10 to 50 µM
CNC(=O)Cn1cc(F)c(C(=O)NNS(=O)(=O)C2CCCCC2)n1 [Compound I-496]	> 100 µM	> 100 µM
O=C(NNS(=O)(=O)c1ccccc1)c1c(F)ccc(-c2cnc[nH]2)c1F [Compound I-497]	50 to 100 µM	10 to 50 µM
CCc1cc(F)cc(-c2cc(Cl)c(F)c(C(=O)NNS(=O)(=O)C3CCCCC3)c2)c1 [Compound I-498]	10 to 50 µM	10 to 50 µM
O=C(NNS(=O)(=O)c1cccc(Cl)c1)c1c(F)ccc(-c2cnc[nH]2)c1F [Compound I-499]	> 100 µM	> 100 µM
CNC(=O)Cn1nc(C)cc1C(=O)NNS(=O)(=O)C1CCCCC1 [Compound I-500]	> 100 µM	> 100 µM
Cc1nn(CC(=O)NC2CCC2)c(C(=O)NNS(=O)(=O)C2CCCCC2)c1F [Compound I-501]	> 100 µM	> 100 µM
Cc1nn(CC(=O)NCCN(C)C)c(C(=O)NNS(=O)(=O)C2CCCCC2)c1F [Compound I-502]	> 100 µM	> 100 µM
CNC(=O)Cn1nc(C)c(F)c1C(=O)NNS(=O)(=O)C1CCCCC1 [Compound I-503]	> 100 µM	> 100 µM

More lines, now with the values ahead:

IC50 (KAT5)	IC50 (KAT6A)	Structure (SMILES)
> 100 µM	> 100 µM	Cc1nn(CC(=O)NCCO)c(C(=O)NNS(=O)(=O)C2CCCCC2)c1F [Compound I-504]
> 100 µM	> 100 µM	CNC(=O)CCNC(=O)Cn1nc(C)c(F)c1C(=O)NNS(=O)(=O)C1CCCCC1 [Compound I-505]
≤ 10 µM	≤ 10 µM	COCCN1CCC(CS(=O)(=O)NNC(=O)c2cc(-c3ccccc3)cc(C)c2F)CC1 [Compound I-507]
≤ 10 µM	> 100 µM	O=C(NNS(=O)(=O)CC1CCCCC1)c1cc(-c2cn3ccccc3n2)cc(Cl)c1F [Compound I-510]
≤ 10 µM	> 100 µM	CCS(=O)(=O)N1CCCC(CS(=O)(=O)NNC(=O)c2cc(-c3cccc(C)c3)cc(Cl)c2F)C1 (centres unmarked) [Compound I-511]
≤ 10 µM	> 100 µM	Cc1cccc(-c2cc(Cl)c(F)c(C(=O)NNS(=O)(=O)CC3CCCN(C(=O)C4CCC4)C3)c2)c1 (centres unmarked) [Compound I-512]
≤ 10 µM	> 100 µM	Cc1cccc(-c2cc(Cl)c(F)c(C(=O)NNS(=O)(=O)CC3CCCN(C(=O)OC(C)(C)C)C3)c2)c1 (centres unmarked) [Compound I-513]
> 100 µM	> 100 µM	Cc1cccc(-c2cc(Cl)c(F)c(C(=O)NNS(=O)(=O)CC3CCCNC3)c2)c1 (centres unmarked) [Compound I-514]
≤ 10 µM	> 100 µM	CC(=O)N1CCCC(CS(=O)(=O)NNC(=O)c2cc(-c3cccc(C)c3)cc(Cl)c2F)C1 (centres unmarked) [Compound I-515]
≤ 10 µM	> 100 µM	Cc1cccc(-c2cc(Cl)c(F)c(C(=O)NNS(=O)(=O)CC3CCN(C(=O)OC(C)(C)C)C3)c2)c1 (centres unmarked) [Compound I-516]
> 100 µM	> 100 µM	Cc1cccc(-c2cc(Cl)c(F)c(C(=O)NNS(=O)(=O)CC3CCNC3)c2)c1 (centres unmarked) [Compound I-517]
> 100 µM	> 100 µM	CCNC(=O)N1CCC(CS(=O)(=O)NNC(=O)c2cc(-c3cccc(C)c3)cc(Cl)c2F)C1 (centres unmarked) [Compound I-518]
≤ 10 µM	≤ 10 µM	CCN(C)C(=O)N1CCC(CS(=O)(=O)NNC(=O)c2cc(-c3cccc(C)c3)cc(Cl)c2F)C1 (centres unmarked) [Compound I-519]
> 100 µM	> 100 µM	Cc1ccc(-c2csc(NS(=O)(=O)c3cccc(C(=O)O)c3)n2)cc1C [Compound I-520]
> 100 µM	> 100 µM	O=C(NNS(=O)(=O)c1cccc(-c2ccccc2)c1)c1ccccc1 [Compound I-521]
> 100 µM	> 100 µM	O=C(NNS(=O)(=O)c1cccc(-c2ccccc2)c1)C1CCCCC1 [Compound I-522]
10 to 50 µM	10 to 50 µM	O=C(NNS(=O)(=O)c1cc(-c2ccccc2)cc(Cl)c1F)c1ccccc1 [Compound I-523]
50 to 100 µM	10 to 50 µM	O=C(NNS(=O)(=O)c1cc(-c2ccccc2)cc(Cl)c1F)C1CCCCC1 [Compound I-524]
